What was measured:
[1] = Net charge of the peptides; format: physicochemical
[2] = tested on: human DNA; test: Binding of peptides to DNA by EMSA; settings: 2% agarose gel
Method: Human DNA was extracted from PBMCs, as reported and was fragmented by sonication. Five milligrams of DNA in a volume of 300 μL were fragmented using the Sonics Vibra Cell sonicator (Newtown, CT, USA), with the following settings: 2, 4 and 10 sonication cycles (30 s on, 30 s off, in ice) to obtain DNA fragment sizes between 100 and 1000 bp. The resulting size distribution was controlled by 2% agarose gel electrophoresis.
EMSA was performed by mixing various μM concentrations of LL37 or carb-LL37 or cit-LL37 (or AMP S100A8, as negative control), with appropriate concentration of DNA, which respected the appropriate protein–DNA ratio used in pDC-stimulation assays. DNA alone and the mixtures were run on a 2% agarose gel to evidence the delay in migration of the DNA, due to the binding to the tested proteins. DNA on the gel was visualized by with SYBR Safe DNA gel staining (ThermoFisher Scientific).

[3] = tested on: native LL37-P1-specific T-cells (HLA-DRB1*1501 tetramer); test: Peptide-MHC-tetramer staining of T-cells after PBMC stimulation; format: cell-based, human
Method: Peptide-MHC-tetramers were from ImmunAware (Denmark). Staining was performed for 40 min with 1microL of tetramer suspension at 37 °C, followed by staining for CD4 (4 °C, 20 min), without washing. After incubation with anti-CD4 antibody, cells were washed, resuspended in PBS and kept at 4 °C. Before flow cytometry-acquisition, cells were labeled with PercP-conjugated 7-AAD to exclude dead cells. The peptide-MHC-tetramers used in this study are: the HLA-DR15-P1: tetramer of HLA-DRB1*1501 LLGDFFRKSKEKIGK (corresponding to the first aa at the NH2-term of the mature native LL37), (PE-conjugated) and the control peptide-MHC-tetramer called DR15-ctr: tetramer of HLA-DRB1*1501 […]1-169-185 (PE-conjugated). The other couple of peptide-MHC-tetramers used were HLA-DRB5*0101 loaded with the same LL37 epitope as above and the control tetramer HLA-DRB5*0101 loaded with the control epitope PVSKMRMATPLLMQA (CLIP-derived).

[4] = tested on: memory B-cells; test: Maturation of purified B-cells into plasma cells, flow cytometry; format: cell-based, human; settings: 7 days; for Plasma cells (CD38highCD27highCD19neg): hrIL-2 50UI/ml; for Stimulation of B-cells to mature into plasma cells, peptide-DNA complex: peptide premixed with DNA (15 μg/mL), hrIL-2 50 UI/mL
Method: PBMCs were isolated by Ficoll-Paque centrifugation (as described above). Total B-cells were isolated by using the Human B-Cell Isolation Kit II, (Miltenyi Biotec, Bergisch Gladbach, Germany), from fresh PBMCs. The purity of B-cells was verified by flow cytometry using the monoclonal anti-human CD19 fluorescein isothiocyanate (FITC). The percentage of memory B-cells was assessed by flow cytometry using monoclonal anti-human CD19 fluorescein, anti-human CD27 allophycocyanin and anti-human CD38 Pacific Blue antibodies (BD Biosciences, San Jose, CA, USA). The majority of B-cells (>80%) were memory cells expressing CD19/CD27 and low CD38 [29].
LL37/cit-LL37/carb-LL37 were each premixed with DNA (15 μg/mL) and added to the B-cell cultures in RMPI 10% FCS, after a 15-min incubation at room temperature. At day 2, hrIL-2 at 50UI/mL was added to the cultures, which were kept in the incubator for 7 days.
Maturation of B-cells into plasma cells was investigated after 7 days culture by flow cytometry (Gallios, BeckmanCoulter, Brea, CA, USA) following surface staining with the following monoclonal antibodies: anti-human CD19 fluorescein-, CD27 allophycocyanin-, CD38 Pacific Blue-conjugated (BD Biosciences, CA, USA). Analysis of the FCS files was performed by FlowJo (BD, San Jose, CA, USA) or by Kaluza (Beckman Coulter, Indianapolis, IN, USA).

[5] = tested on: SLE CD4 T-cells; settings: cited from earlier work
Description: The activation of autoreactive T- and B-cells characterizes Systemic Lupus Erythematosus (SLE), a rare but potentially severe disease, with poor therapeutic options. In this context, a deeper knowledge of the molecular pathways leading to autoimmunity in SLE may shed light over disease aspects still neglected and uncover novel disease biomarkers and therapy targets. The human cathelicidin antimicrobial peptide, (AMP, Uniprot P49913)—also called CAP-18 or FALL-39—is encoded by the human gene CAMP. The mature form, peptide LL37, which corresponds to the COOH-terminal part of the molecule ( ...

[6] = 7 days carb-LL37 stimulation, control tetramer, tetramer/CXCR5 plots
[7] = 7 days carb-LL37 stimulation, tetramer loaded with native LL37 epitope P1, tetramer/CXCR5 plots

| Substance | Net charge [1] | Concentration at which DNA binding ability is lost [2] [µM] | DNA binding ability ([2]; 3-to-5 experiments) | Percent printed first in Figure S7b plot (gate not recoverable from text) [3, 6] [%] | Percent printed second in Figure S7b plot (gate not recoverable from text) [3, 6] [%] | Percent printed third in Figure S7b plot (gate not recoverable from text) [3, 6] [%] | Percent printed second in Figure S7a plot (gate not recoverable from text) [3, 7] [%] | Percent printed third in Figure S7a plot (gate not recoverable from text) [3, 7] [%] | CXCR5 expression on LL37-specific (tetramer-positive) T-cells ([3]; SLE PBMC stimulated, Figure 5d) | Expansion of T-cells specific for the native LL37 epitope ([3]; SLE PBMC, tetramer staining, versus control tetramer) | Plasma cells (CD38highCD27highCD19neg) ([4]; 10 µM peptide + DNA, Figure S9b) [%] | Plasma cells (CD38highCD27highCD19neg) ([4]; 10 µM peptide alone, Figure S9a) [%] | Plasma cells (CD38highCD27highCD19neg) ([4]; 20 µM peptide + DNA, Figure S9c) [%] | Stimulation of B-cells to mature into plasma cells, peptide-DNA complex [4] | Antigen efficiency in SLE compared to native LL37 [5] |
| --- | --- | --- | --- | --- | --- | --- | --- | --- | --- | --- | --- | --- | --- | --- | --- |
| L*LGDFFRK*SK*EK*IGKEFK*RIVQRIK*DFLRNLVPRTES [carb-LL37] | +1 | 3 | does not completely abolish the LL37 DNA binding ability | 0.0 | 0.19 | 0.01 | 2.00 | 2.20 | variable but significant expression of the TFH marker CXCR5 | expansion of T-cells specific for the native LL37 epitope | 14.73 | 7.27 | 28.09 | maintained LL37 ability to stimulate the B-cells to mature into plasma cells | – |
| LLGDFFR(cit)KSKEKIGKEFKR(cit)IVQR(cit)IKDFLR(cit)NLVPR(cit)TES [cit-LL37, LL37 citrullinated at all five arginine sites] | +1 | – | – | – | – | – | – | – | – | – | – | – | – | abolishes the B-cell maturation into plasma cells | more efficient antigen in SLE than native LL37 |
